These results are taken from paper PMC5663708, “Novel Benzylidene Thiazolidinedione Derivatives as Partial PPARγ Agonists and their Antidiabetic Effects on Type 2 Diabetes” (Scientific Reports, 2017).

Data set [1] is described as follows: XTT in vitro hepatotoxicity assay on HepG2 cells. The format is cell-based, human. The note with it: human, highest tested concentration (1000 μM), read-out: cell viability. On the procedure:
(§1) HepG2 cells are considered as a useful model to study in vitro xenobiotic metabolism and liver toxicity. In particular, HepG2 cells are able to activate and detoxify xenobiotics and, they are the reason why these cells are intensively used in toxicology[58],[59]. Hepatotoxicity was determined using the XTT assay.
(§2) The final DMSO concentration was set at <0.1%. Rosiglitazone and Pioglitazone were used as positive controls. IC50 values and cell viability % were calculated.
On the technique in general: Tetrazolium assays rely on reduction of a dye to a coloured formazan, in cell work by metabolically active cells.

The test system of a further data set is P-gp. The data set can be described thus: In vitro Caco-2 permeability. The data set is classed as in vitro ADME. To be noted: human; Caco-2, 2 µM, 150 min; read-out: Efflux Ratio (B > A/A > B). On the procedure: (§3) The oral bioavailability of compounds in terms of Caco-2 and MDCK-II permeability and the P-glycoprotein (P-gp) efflux ratio were assessed. The in vitro intrinsic half-life (T1/2,int) and the apparent intrinsic clearance (CLint,app) of compounds were also measured after incubation with human liver microsomes at 37.5 °C[65]. […] Quantification was done by LC-MS/MS. P-gp substrate activity was assessed by the efflux ratio (the ratio of Papp in the B-to-A direction over that in the A-to-B direction). […] P-gp is an ATP-dependent transporter on the apical plasma membrane of enterocytes that functions to limit the entry of drugs into the cell.
In general terms: Caco-2 cells form a polarised layer with tight junctions and transporters.

Data set [2] can be described thus: In vitro Caco-2 permeability. The data set is classed as in vitro ADME. To be noted: human; for Papp A→B at 150 min, 2 µM / Papp B→A at 150 min, 2 µM: Caco-2, 2 µM, pH 6.5/7.4, n = 2; for Papp at 150 min, 2 µM: Caco-2, based on Papp,A-B, read-out: Permeability Rank. Here is the method: as §3
The subject of data set [3] is STZ-NA-induced diabetic rats. The data set can be described thus: Antidiabetic activity in STZ-NA-induced type 2 diabetic rats. The note with it: for HbA1c / blood glucose levels / HDL-C / Hb levels / TC, TG, VLDL-C and LDL-C: 15 days; for blood glucose levels: vs diabetic control rats; for HDL-C / Hb levels / TC, TG, VLDL-C and LDL-C: vs disease control (STZ + NA). On the procedure:
The test dose was fixed based on the predicted LD50 value. […] Diabetic rats were orally treated with the test compounds at a dose of 36 mg/kg body weight for a period of 15 days. Fasting blood glucose of control, diabetic-untreated and diabetic-treated rats were tested on Days 1, 3, 7 and 15 of the treatment period (Fig. 6A).
Male Wistar strain rats weighing about 160–200 g were used for animal studies. […] Rats were provided with rodent diet and water ad libitum. […] The animals were allowed to drink 5% glucose solution overnight to prevent STZ-NA-induced hypoglycemia[82],[83]. The rats were considered as diabetic if their blood glucose levels were above 250 mg/dL on the 3rd day after STZ-NA injection. The rats were divided into four groups of six animals in each group. Control animals received normal saline (Group I). Diabetic rats received STZ-NA injection (Group II). […] The blood glucose level of each group was checked at 1, 3, 7 and 15 Day by withdrawing blood from tail vein of the animal using glucose meter (ACCu-Chek active, Roche, Diagnostics USA).
After pharmacological screening for antidiabetic activity, the animals were subjected to overnight fasting and blood was collected from retro-orbital region under light anaesthesia for performing various biochemical experiments. All the biochemical experiments were performed using commercially available kits. Total Hb was estimated by cyanomethaemoglobin method, while HbA1c was estimated from whole blood using commercially available kits following the manufacturer guidelines (ERBA Diagnostics Inc, Accurex Biomedical Pvt. Ltd., Coral clinical systems, India). TG concentration was determined by GPO-POD enzymatic-colorimetric method. TC level was measured by the end point, CHOD-POD colorimetric methods. HDL-C was assayed by the method reported earlier. VLDL-C and LDL-C in plasma were calculated by the Friedewald formula: VLDL-C = TG/5; LDL-C = TC-(HDL-C + VLDL-C)[88]. Levels of serum urea, uric acid, and creatinine were measured using commercially available kits[89].
Rats were sacrificed under light anesthesia using diethylether at the end of the pharmacological and biochemical studies. […] Then, the tissue was sliced out into sections of 5 µm thickness by a rotator microtome and stained with hematoxylin-eosin. Obtained sections were examined by a Leica DME microscope, and representative photomicrographs were taken by a 7.1 megapixel Canon Power Shot S70 digital camera.

The nature of data set [4]: In vitro MDCK-II permeability. The data set is classed as in vitro ADME. The note with it: dog; for Papp A→B at 150 min, 2 µM / Papp B→A at 150 min, 2 µM: pH 7.4/7.4, n = 2; for Papp at 150 min, 2 µM: based on Papp,A-B, read-out: Permeability Rank. On the procedure: (§4) The oral bioavailability of compounds in terms of Caco-2 and MDCK-II permeability and the P-glycoprotein (P-gp) efflux ratio were assessed. […] Quantification was done by LC-MS/MS. P-gp substrate activity was assessed by the efflux ratio (the ratio of Papp in the B-to-A direction over that in the A-to-B direction). […] P-gp is an ATP-dependent transporter on the apical plasma membrane of enterocytes that functions to limit the entry of drugs into the cell.

For data set [5], the system named is HepG2 human hepatocellular liver carcinoma cell line. Nature of the data set: XTT in vitro hepatotoxicity assay on HepG2 cells. The note with it: at 1000 μM. The data set is classed as cell-based. On the procedure: as §1, §2
For a further data set, the system named is Caco-2 monolayers. Nature of the data set: In vitro Caco-2 permeability. The format is in vitro ADME. On the procedure:
as §3

For a further data set, the system named is MDCK-II monolayers. The data set can be described thus: In vitro MDCK-II permeability. The format is in vitro ADME. On the procedure: as §4
Setting [6] is: 36 mg/kg, light microscopy, hematoxylin-eosin.
Where [7] appears, read: Caco-2, 2 µM, 150 min, pH 6.5/7.4, n = 2.
Setting [8] is: 2 µM, 150 min, pH 7.4/7.4, n = 2.

The term viability denotes a per cent measure of how many cells are alive, often set against a control. For orientation: Papp A→B means how fast a substance crosses the layer from the apical side. A high value points to fast passage. As a reminder, the Papp B→A is the apparent permeability from the basolateral to the apical side of a cell layer. As to `CCN(CC)C(=O)CN1C(=O)S/C(=C\c2ccccc2)C1=O` [1i], the viability at 1000 µM in data set [1] came out at 64 ± 3.93%. In the data set with P-gp, the efflux ratio at 150 min, 2 µM was determined as 2.7. Further, in data set [2], the apical-to-basolateral permeability (Papp A→B) at 150 min, 2 µM was 23 ×10⁻⁶ cm/s; the Papp B→A at 150 min, 2 µM amounted to 51.2 ×10⁻⁶ cm/s; the Papp at 150 min, 2 µM was at least 5 ×10⁻⁶ cm/s. In addition, in data set [3] (36 mg/kg oral), the HbA1c entry was “significantly prevented the increase”, the blood glucose levels entry was “significantly reduced”, the HDL-C result is listed as “increase” and the Hb levels result is reported as “significant increase”. The “TC, TG, VLDL-C and LDL-C” value in data set [3] (36 mg/kg oral) is reported as “significant decrease”. Besides, in data set [3] (setting [6]), the “histological changes of pancreas (islets, β-cells)” value (shortened to “histological changes of pancreas”) was “restored to near normal”. Further, in data set [4], the Papp A→B at 150 min, 2 µM was 16.3 ×10⁻⁶ cm/s; the Papp B→A at 150 min, 2 µM came out at 11.9 ×10⁻⁶ cm/s; the Papp at 150 min, 2 µM is at least 5 ×10⁻⁶ cm/s.
Turning to `CCCCNC(=O)CN1C(=O)S/C(=C\c2ccccc2)C1=O` [1a], the “cell viability compared with Rosiglitazone” value in data set [5] is “did not show any significant difference”. Besides, in the data set with Caco-2 monolayers (setting [7]), the “Avg Papp A to B” value was found to be 2.4e-06 cm/s and the “Avg Papp B to A” value was found to be 1.43e-05 cm/s. For the same molecule, the “Permeability Rank” value in the data set with Caco-2 monolayers (Caco-2, based on Papp,A-B) is given as “Low (Low, Papp,A-B < 5 × 10^−6 cm/sec)”. In data set [3] (36 mg/kg oral), the HbA1c entry is on record as “significantly prevented the increase”, the blood glucose levels result is given as “significantly reduced”, the HDL-C entry was “increase” and the Hb levels entry was “significant increase”. Further, the “TC, TG, VLDL-C and LDL-C” value in data set [3] (36 mg/kg oral) is reported as “significant decrease”. For the same molecule, in data set [3] (setting [6]), the “histological changes of pancreas” value is “restored to near normal” and the liver histopathology entry is reported as “no hepatic abnormalities”. In addition, in the data set with MDCK-II monolayers (setting [8]), the “Avg Papp A to B” value came to 1.8e-06 cm/s and the “Avg Papp B to A” value turned out to be 2.5e-06 cm/s. Also, the “Permeability Rank” value with MDCK-II monolayers (based on Papp,A-B) is listed as “Low (Low, Papp,A-B < 5 × 10^−6 cm/sec)”.
As to `CCCCNC(=O)CN1C(=O)S/C(=C\c2ccc(Cl)cc2)C1=O` [3a], in data set [5], the “cell viability compared with Rosiglitazone” value is on record as “did not show any significant difference”. Moreover, in the data set with P-gp, the efflux ratio at 150 min, 2 µM stood at 3.2. For the same molecule, in data set [2], the Papp A→B at 150 min, 2 µM worked out at 1.6 ×10⁻⁶ cm/s; the Papp B→A at 150 min, 2 µM is 19.3 ×10⁻⁶ cm/s; the Papp at 150 min, 2 µM was under 5 ×10⁻⁶ cm/s. In addition, in data set [3] (36 mg/kg oral), the HbA1c entry is “significantly prevented the increase”, the blood glucose levels entry is “significantly reduced”, the HDL-C result is listed as “increase” and the Hb levels result is “significant increase”. For the same molecule, the “TC, TG, VLDL-C and LDL-C” value in data set [3] (36 mg/kg oral) is on record as “significant decrease”. In addition, the “blood glucose lowering activity compared with standard” value in data set [3] (36 mg/kg oral, data for 15th Day) was “equivalent to the standard drug Pioglitazone”. In data set [3] (setting [6]), the “histological changes of pancreas” value is “restored to near normal”. Further, in data set [4], the Papp A→B at 150 min, 2 µM came to 0.8 ×10⁻⁶ cm/s; the Papp B→A at 150 min, 2 µM came to 0.4 ×10⁻⁶ cm/s; the Papp at 150 min, 2 µM was under 5 ×10⁻⁶ cm/s.
